Assay results published in PubChem BioAssay (NCI).
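Interpolation was linear, between the two tested concentrations surrounding the appropriate level; five concentrations were tested over 48 hours in 96-well plates. The concentration for 50% growth inhibition is given as GI50. At the TGI there is no net growth.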

How the values were obtained:
Assay in all cases: DTP human tumour cell line panel, 48 h
TK-10 renal = test system: TK-10 renal
T-47D breast = test system: T-47D breast
CCRF-CEM leukemia = test system: CCRF-CEM leukemia
HOP-62 NSCLC = test system: HOP-62 NSCLC
786-0 renal = test system: 786-0 renal
HCT-116 colon = test system: HCT-116 colon
SK-OV-3 ovarian = test system: SK-OV-3 ovarian
MDA-MB-435 = test system: MDA-MB-435

CC(C)(C)[Si](C)(C)OC1[C@@H](CNC(=O)NC(=O)CCl)O[C@@H](n2cnc3c(N)ncnc32)[C@H]1O[Si](C)(C)C(C)(C)C (some centres undefined)
GI50 (TK-10 renal): 1390 nM | TGI (TK-10 renal): 3.63 µM | GI50 (T-47D breast): 1.03 µM | TGI (T-47D breast): 2.13 µM | GI50 (CCRF-CEM leukemia): 0.121 µM | TGI (CCRF-CEM leukemia): 0.326 µM | GI50 (HOP-62 NSCLC): 0.842 µM | TGI (HOP-62 NSCLC): 1.69 µM | GI50 (786-0 renal): 662 nM | TGI (786-0 renal): 1.55 µM | GI50 (HCT-116 colon): 795 nM | TGI (HCT-116 colon): 1.51 µM | GI50 (SK-OV-3 ovarian): 1050 nM | TGI (SK-OV-3 ovarian): 2.01 µM | GI50 (MDA-MB-435): 798 nM | TGI (MDA-MB-435): 1.56 µM

Nc1cc(Br)c(-c2nnc(CCC(=O)c3nc4ccccc4[nH]3)o2)c(Br)c1
GI50 (TK-10 renal): 36500 nM | TGI (TK-10 renal): > 100 µM | GI50 (T-47D breast): 23.4 µM | TGI (T-47D breast): > 100 µM | GI50 (CCRF-CEM leukemia): 3.81 µM | TGI (CCRF-CEM leukemia): > 100 µM | GI50 (HOP-62 NSCLC): 23.7 µM | TGI (HOP-62 NSCLC): > 100 µM | GI50 (786-0 renal): 21000 nM | TGI (786-0 renal): 61.7 µM | GI50 (HCT-116 colon): 8260 nM | TGI (HCT-116 colon): > 100 µM | GI50 (SK-OV-3 ovarian): 22300 nM | TGI (SK-OV-3 ovarian): 80.5 µM | GI50 (MDA-MB-435): 1560 nM | TGI (MDA-MB-435): 3.71 µM

COc1cc2c(Nc3cc(Cl)c(OC)c(Cl)c3)c(C#N)cnc2cc1OCCCN1CCN(C)CC1
GI50 (TK-10 renal): 253 nM | TGI (TK-10 renal): 2.43 µM | GI50 (T-47D breast): 2.02 µM | TGI (T-47D breast): 9.65 µM | GI50 (CCRF-CEM leukemia): 2.04 µM | TGI (CCRF-CEM leukemia): 10.8 µM | GI50 (HOP-62 NSCLC): 3.39 µM | TGI (HOP-62 NSCLC): 12.1 µM | GI50 (786-0 renal): 1730 nM | TGI (786-0 renal): 4.54 µM | GI50 (HCT-116 colon): 1210 nM | TGI (HCT-116 colon): 3.49 µM | GI50 (SK-OV-3 ovarian): 378 nM | TGI (SK-OV-3 ovarian): 16.6 µM | GI50 (MDA-MB-435): 1240 nM | TGI (MDA-MB-435): 3.2 µM

COc1ccc(-c2nccn2-c2ccc(OC)cc2)cc1
GI50 (TK-10 renal): 23000 nM | TGI (TK-10 renal): > 75.9 µM | GI50 (T-47D breast): 65.4 µM | TGI (T-47D breast): > 100 µM | GI50 (CCRF-CEM leukemia): 23.5 µM | TGI (CCRF-CEM leukemia): 76.7 µM | GI50 (HOP-62 NSCLC): 22 µM | TGI (HOP-62 NSCLC): 74.4 µM | GI50 (786-0 renal): 21900 nM | TGI (786-0 renal): 60.6 µM | GI50 (HCT-116 colon): 16400 nM | TGI (HCT-116 colon): 44.4 µM | GI50 (SK-OV-3 ovarian): 22800 nM | TGI (SK-OV-3 ovarian): 93.6 µM | GI50 (MDA-MB-435): 7530 nM | TGI (MDA-MB-435): 35.1 µM

CCCc1cc(=O)n2c(C(=O)Nc3ccc(Cl)cc3C)c(C(=O)Nc3ccc(F)cc3)sc2n1
GI50 (TK-10 renal): 12300 nM | TGI (TK-10 renal): 39.3 µM | GI50 (T-47D breast): 20 µM | TGI (T-47D breast): 132 µM | GI50 (CCRF-CEM leukemia): 16.4 µM | TGI (CCRF-CEM leukemia): 103 µM | GI50 (HOP-62 NSCLC): 1.54 µM | TGI (HOP-62 NSCLC): 3.95 µM | GI50 (786-0 renal): 2360 nM | TGI (786-0 renal): 5.96 µM | GI50 (HCT-116 colon): 2530 nM | TGI (HCT-116 colon): > 150 µM | GI50 (SK-OV-3 ovarian): 12700 nM | TGI (SK-OV-3 ovarian): 52.8 µM | GI50 (MDA-MB-435): 20900 nM | TGI (MDA-MB-435): > 150 µM

CCN(CC)CCCCCCNc1cccc2cc(Br)cnc12
GI50 (TK-10 renal): 1810 nM | TGI (TK-10 renal): 3.89 µM | GI50 (T-47D breast): 5.31 µM | TGI (T-47D breast): 20 µM | GI50 (CCRF-CEM leukemia): 3.13 µM | TGI (CCRF-CEM leukemia): 11.2 µM | GI50 (HOP-62 NSCLC): 10 µM | TGI (HOP-62 NSCLC): 23.4 µM | GI50 (786-0 renal): 3390 nM | TGI (786-0 renal): 11.1 µM | GI50 (HCT-116 colon): 3390 nM | TGI (HCT-116 colon): 14.2 µM | GI50 (SK-OV-3 ovarian): 13200 nM | TGI (SK-OV-3 ovarian): 26.8 µM | GI50 (MDA-MB-435): 3760 nM | TGI (MDA-MB-435): 12.9 µM

CCCC(=O)C1=C(O)C(Cc2c(O)c(C)c(O)c(C(=O)CCC)c2O)=C(O)C(C)(C)C1=O
TGI (TK-10 renal): > 50 µM | TGI (T-47D breast): > 50 µM | TGI (CCRF-CEM leukemia): 20 µM | TGI (HOP-62 NSCLC): > 50 µM | TGI (786-0 renal): > 50 µM | TGI (HCT-116 colon): > 50 µM | TGI (SK-OV-3 ovarian): > 50 µM | TGI (MDA-MB-435): > 50 µM

O=C(O)c1cccc(COc2ccc([N+](=O)[O-])cc2Cl)c1
GI50 (TK-10 renal): 27200 nM | TGI (TK-10 renal): > 100 µM | GI50 (T-47D breast): > 100 µM | TGI (T-47D breast): > 100 µM | GI50 (CCRF-CEM leukemia): > 100 µM | TGI (CCRF-CEM leukemia): > 100 µM | GI50 (HOP-62 NSCLC): > 100 µM | TGI (HOP-62 NSCLC): > 100 µM | GI50 (786-0 renal): > 100000 nM | TGI (786-0 renal): > 100 µM | GI50 (HCT-116 colon): > 100000 nM | TGI (HCT-116 colon): > 100 µM | GI50 (SK-OV-3 ovarian): > 100000 nM | TGI (SK-OV-3 ovarian): > 100 µM | GI50 (MDA-MB-435): > 100000 nM | TGI (MDA-MB-435): > 100 µM

Cc1cc(Nc2nc(-c3cn(-c4ccc(Cl)cc4)nn3)nc3ccccc23)n[nH]1
GI50 (TK-10 renal): 6690 nM | TGI (TK-10 renal): 39.3 µM | GI50 (T-47D breast): 13.1 µM | TGI (T-47D breast): 42.3 µM | GI50 (CCRF-CEM leukemia): 19.5 µM | TGI (CCRF-CEM leukemia): > 50 µM | GI50 (HOP-62 NSCLC): 14 µM | TGI (HOP-62 NSCLC): > 50 µM | GI50 (786-0 renal): 15100 nM | TGI (786-0 renal): > 50 µM | GI50 (HCT-116 colon): 7640 nM | TGI (HCT-116 colon): 25.4 µM | GI50 (SK-OV-3 ovarian): 6820 nM | TGI (SK-OV-3 ovarian): 48.5 µM | GI50 (MDA-MB-435): 11600 nM | TGI (MDA-MB-435): > 50 µM

COc1cc2c(cc1O)CCN[C@]21CS[C@@H]2c3c(OC(C)=O)c(C)c4c(c3[C@H](COC1=O)N1[C@@H]2[C@H]2c3c(cc(C)c(OC)c3O)C[C@@H]([C@@H]1O)N2C)OCO4
GI50 (TK-10 renal): 3.31 nM | TGI (TK-10 renal): 3.54 µM | TGI (T-47D breast): 3.02 µM | TGI (CCRF-CEM leukemia): 3.11 µM | TGI (HOP-62 NSCLC): 0.252 µM | TGI (786-0 renal): 0.948 µM | TGI (HCT-116 colon): 2.94 µM | GI50 (SK-OV-3 ovarian): 3.09 nM | TGI (SK-OV-3 ovarian): 3.99 µM

COC(=O)C1C(O)C(C(=O)OC)C(C)N(C)C1C (centres undefined)
TGI (TK-10 renal): > 100 µM | TGI (CCRF-CEM leukemia): > 100 µM | TGI (HOP-62 NSCLC): > 100 µM | TGI (786-0 renal): > 100 µM | TGI (HCT-116 colon): > 100 µM | TGI (SK-OV-3 ovarian): > 100 µM | TGI (MDA-MB-435): > 100 µM

O=C1c2ccccc2-c2c1c1ccccc1c(=O)n2CCN1CCNCC1
GI50 (TK-10 renal): 2210 nM | TGI (TK-10 renal): 11.3 µM | GI50 (T-47D breast): 2.4 µM | TGI (T-47D breast): 16.2 µM | GI50 (CCRF-CEM leukemia): 0.671 µM | TGI (CCRF-CEM leukemia): 4.26 µM | GI50 (HOP-62 NSCLC): 1.92 µM | TGI (HOP-62 NSCLC): 6.27 µM | GI50 (786-0 renal): 2880 nM | TGI (786-0 renal): 12.4 µM | GI50 (HCT-116 colon): 573 nM | TGI (HCT-116 colon): 3.97 µM | GI50 (SK-OV-3 ovarian): 1730 nM | TGI (SK-OV-3 ovarian): 6.26 µM | GI50 (MDA-MB-435): 1970 nM | TGI (MDA-MB-435): 4.2 µM

CC1(C)CN=C(NN=C(/C=C/c2ccc(C(F)(F)F)cc2)/C=C/c2ccc(C(F)(F)F)cc2)NC1
GI50 (TK-10 renal): 1910 nM | TGI (TK-10 renal): 3.37 µM | GI50 (T-47D breast): 1.49 µM | TGI (T-47D breast): 3.03 µM | GI50 (CCRF-CEM leukemia): 1.12 µM | TGI (CCRF-CEM leukemia): 4.17 µM | GI50 (HOP-62 NSCLC): 1.93 µM | TGI (HOP-62 NSCLC): 3.56 µM | GI50 (786-0 renal): 1780 nM | TGI (786-0 renal): 3.42 µM | GI50 (HCT-116 colon): 1320 nM | TGI (HCT-116 colon): 2.75 µM | GI50 (SK-OV-3 ovarian): 1770 nM | TGI (SK-OV-3 ovarian): 3.16 µM | GI50 (MDA-MB-435): 1590 nM | TGI (MDA-MB-435): 3 µM

CCC(C)(O)c1cnc(CC(C)C)c(=O)n1O (centres undefined)
TGI (TK-10 renal): > 100 µM | TGI (T-47D breast): > 100 µM | TGI (CCRF-CEM leukemia): 54.1 µM | TGI (HOP-62 NSCLC): > 100 µM | TGI (786-0 renal): > 100 µM | TGI (HCT-116 colon): > 100 µM | TGI (SK-OV-3 ovarian): > 100 µM | TGI (MDA-MB-435): > 100 µM

COc1ccc(C(=O)c2cc(OC)c(OC)c(OC)c2)cc1OC
TGI (TK-10 renal): > 100 µM | TGI (CCRF-CEM leukemia): > 100 µM | TGI (HOP-62 NSCLC): > 100 µM | TGI (786-0 renal): > 100 µM | TGI (HCT-116 colon): > 100 µM | TGI (MDA-MB-435): 1.89 µM

Cc1ccc(OCCOCCOCCOCCOc2ccc(C)n(O)c2=S)c(=S)n1O
GI50 (TK-10 renal): 527 nM | TGI (TK-10 renal): > 100 µM | GI50 (T-47D breast): < 0.01 µM | TGI (T-47D breast): > 100 µM | GI50 (CCRF-CEM leukemia): < 0.01 µM | TGI (CCRF-CEM leukemia): > 100 µM | GI50 (HOP-62 NSCLC): 0.184 µM | TGI (HOP-62 NSCLC): > 100 µM | GI50 (786-0 renal): 335 nM | TGI (786-0 renal): > 100 µM | GI50 (HCT-116 colon): < 10 nM | TGI (HCT-116 colon): > 100 µM | GI50 (SK-OV-3 ovarian): 75.3 nM | TGI (SK-OV-3 ovarian): > 100 µM | GI50 (MDA-MB-435): 366 nM | TGI (MDA-MB-435): > 100 µM
